Columns and labels:
[1] = test system: Hsp27 and hnRNP A1 redistribution in RD cells; test: Immunofluorescence colocalization assay of Hsp27/hnRNP A1 redistribution, RD cells with or without EV-A71 infection; format: cell-based; conditions: for fraction of Hsp27 overlapping DAPI (M1 colocalization coefficient): EV-A71-infected RD cells; for redistribution of Hsp27 and hnRNP A1 in EV-A71-infected RD cells / localization of Hsp27 and hnRNP A1 in mock RD cells: 25 μM for 2h; for redistribution of Hsp27 and hnRNP A1 in EV-A71-infected RD cells: EV-A71 MOI 40 for 6h; for localization of Hsp27 and hnRNP A1 in mock RD cells: without EV-A71
Method: The cells on coverslips were infected with EV-A71 at the multiplicity of infection (MOI) of 40 for 6 hrs to assure the high efficiency of viral infection. Then the cells were fixed by 4% paraformaldehyde for 20 min, permeabilized by 0.5% Triton X-100 for 15 min, blocked with 5% BSA for 2 hrs, and stained by incubation with anti-Hsp27 (GTX101145) and anti-hnRNP A1 (sc-32301) antibody, then with Alexa Fluor 488 conjugated anti-rabbit antibody and Alexa Fluor 594 conjugated anti-mouse antibody respectively. After washing four times with 0.2% Triton X-100, the nuclei were stained with DAPI or Hoechst for 5 min. The images were captured by a Nikon A1HD25 High speed and Large Field of View Confocal Microscope. Colocalization analysis was conducted using the JACoP-plugin of the extended ImageJ version Fiji. The M1 colocalization coefficient was computed to illustrate the colocalization levels of Hsp27 and hnRNP A1 overlapped with Hoechst.
Hsp27 is predominantly located in the cytoplasm, however, stress (e.g., heat shock, virus infection) can induce partial redistribution of Hsp27 from the cytoplasm to the nucleus, concomitantly with its phosphorylation. We thus postulated that the cellular redistribution of Hsp27 may be associated with its phosphorylation upon EV-A71 infection. To verify the hypothesis, RD cells were with SB203580 at 0, 2, 4, and 8 μM for 2 h, and the cells were infected with EV-A71 for 6 h. […] The colocalization of Hsp27 and DAPI, which stands for the level of redistribution of Hsp27, was also quantified. The colocalization coefficient M1 was computed as the fraction of Hsp27 colocalized with DAPI in the total Hsp27 area using the JACoP-plugin in FIJI.
We hypothesized that peptides S78 and S82A could interfere with Ser78 phosphorylation while peptides S78A (Ser78 replaced by Ala78) would not affect the phosphorylation of Ser78 of Hsp27. […] RD cells were pre-treated with peptide S78, S78A or S82A at the concentrations of 25 μM for 2h and then infected with or without EV-A71 at an MOI of 40 for 6h.

[2] = test system: Hsp27 phosphorylation on Ser 15, 78, 82; test: Western blot of Hsp27 phosphorylation in EV-A71-infected RD cells; format: cell-based; conditions: for inhibition of Hsp27 Ser78 phosphorylation: peptide pre-treatment 2 hours
Method: RD cells were treated with SB203580 at indicated concentration for 2 hours, then infected with EV-A71 at the MOI of 10 for 6 hours. Cell lysates were collected for western blot assay. Hsp27 phosphorylation on Ser 15, 78, 82 were detected by specific antibodies. GAPDH were detected as internal control.
FIGS. 10A-10K. […] (FIG. 10A) RD cells were pre-treated with peptides S78 or for 2 hours and infected with EV-A71 at the MOI of 10 for 6 hours. Cell lysates were collected for western blot assay. Hsp27 phosphorylation on Ser 15, 78, 82 were detected by specific antibodies. β-Actin were detected as internal control. (FIG. 10B) Densitometric analysis of FIG. 9A. (FIG. 10C) HEK 293T cells were pre-treated with peptides S78 or S78A at the concentration of 25 μM for 2 hours and then co-transfected with Hsp27-WT plasmid (800 ng), pIRES reporter plasmid (200 ng) and 2A^pro-expressing plasmid or 2AC110A-expressing plasmid (200 ng) for 24 h, then the luciferase activity was measured. (FIG. 10D-10E) RD cells were treated with peptides S78 or S78A and then infected with EV-A71. EV-A71 VP1 were detected. (FIG. 10F) RD cells were treated with peptides and then infected with EV-A71 at the MOI of 1 for 12 hours. The EV-A71-induced CPE was captured. (FIG. 10G-10H) Intracellular viral RNA was extracted and quantified by qPCR. (FIG. 10I) Densitometric analysis FIG. 9D-E. (FIG. 10J) RD cells were treated with peptides S78 or and then infected with EV-A71 at the MOI of 1 for 12 hours. Extracellular viral RNA was extracted and quantified by qPCR. (FIG. 10K) Viral titration was calculated by TCID50. The Statistical analyses were carried out using Student's t-test. *: p<0.05, **: p<0.01, ***: p<0.001. Data are expressed as mean ±SD.
After cell lysis in Nonidet-P40 (NP-40) buffer, the cell lysates were centrifuged, and the concentration was determined by Bradford assay (Bio-Rad). 20 μg of protein was used for 12% SDS-PAGE and transferred onto polyvinylidene fluoride membrane (PVDF) (GE, MA, USA). Following 5% bovine serum albumin (BSA) blocking for 1 hrs, the membrane was incubated with antibodies (1:1000) against Hsp27 (sc-13132), pHsp27-Ser15 (ab76313), pHsp27-Ser78 (ADI-SPA-523), pHsp27-Ser82 (ab155987), VP1 (GTX132339), β-Actin (sc-47778), hnRNP A1 (sc-32301), or GAPDH (sc-32233) overnight in 4° C. After secondary antibodies (HRP-conjugated Affinipure Goat Anti-Mouse IgG(H+L), SA00001-1, and HRP-conjugated Affinipure Goat Anti-Rabbit IgG(H+L), SA00001-2) incubation for 1 hrs, the protein was visualized with a chemiluminescence reagent (PerkinElmer, MA, USA) on Bio-Rad Chemidoc Imaging System. The protein bands were quantified by densitometry with ImageJ if necessary.
In this example, the effect of EV-A71 infection on Hsp27 phosphorylation was investigated. […] Then, the phosphorylation status of Hsp27 upon virus infection under the treatment with a p38 inhibitor was examined, as the phosphorylation of Hsp27 could be resulted from p38 signaling activation. To this purpose, the cells were first treated with p38 kinase inhibitor −SB203580 at different concentrations (0, 0.25, 0.5, 1, 2, 4, and 8 μM) and the phosphorylation level of Hsp27 upon EV-A71 infection was examined by western blot assay.

[3] = SB203580 0-8 μM for 2 hours, EV-A71 MOI 10 for 6 hours, RD cells
[4] = EV-A71 MOI 10 for 6 hours, RD cells

## C[S+]([O-])c1ccc(-c2nc(-c3ccncc3)c(-c3ccc(F)cc3)[nH]2)cc1 (stereo not shown) [SB203580, reference compound]
[1]; 0, 2, 4, 8 μM
  fraction of Hsp27 overlapping DAPI (M1 colocalization coefficient): reduced in a dose-dependent manner
[1]; 2 μM for 2 h, EV-A71 6 h, RD cells
  nuclear Hsp27 level upon EV-A71 infection: markedly reduced
[1]; 4 μM for 2 h, EV-A71 6 h, RD cells
  nuclear relocation of Hsp27 upon EV-A71 infection: further blocked to an invisible level
[1]; 8 μM
  fraction of Hsp27 overlapping DAPI (M1 colocalization coefficient): reduced to the basal level
[1]; RD cells without EV-A71 infection
  Hsp27 translocation to the nucleus without EV-A71 infection: not translocated to the nucleus
[2]; 8 μM, EV-A71-infected RD cells
  reduction of phosphorylation level at Ser78 (densitometry): over 85%
[2]; [3]
  phosphorylation level of Hsp27 at Ser15: slightly decreased
  phosphorylation level of Hsp27 at Ser82: slightly decreased
  phosphorylation of Hsp27 at Ser78: markedly suppressed in a dose-dependent manner

## Ac-RKKRRQRRRAYSRALARQLSS-NH2 [S78A]
[1]
  redistribution of Hsp27 and hnRNP A1 in EV-A71-infected RD cells: only partially reduced
  localization of Hsp27 and hnRNP A1 in mock RD cells: not affected
[2]; [4]
  inhibition of Hsp27 Ser78 phosphorylation: less inhibition

## Ac-RKKRRQRRRAYSRALSRQLSS-NH2 [S78]
[1]
  redistribution of Hsp27 and hnRNP A1 in EV-A71-infected RD cells: dramatically blocked
  localization of Hsp27 and hnRNP A1 in mock RD cells: not affected
[2]; [4]
  inhibition of Hsp27 Ser78 phosphorylation: dramatically inhibited

## Ac-RKKRRQRRRYSREANQPKPSPKRESGEE-NH2 [NC, reference compound]
[1]
  redistribution of Hsp27 and hnRNP A1 in EV-A71-infected RD cells: did not affect
